Measured values reported in patent publication US7939509B2, “Partial and full agonists of A1 adenosine receptors” (Gilead Sciences, Inc., priority 2002, dated 2011).
Entries after “also recorded” stand apart in the source; their conditions may differ.

Columns and labels:
awake rats [1] = assay: Serum triglyceride (TG) levels in overnight-fasted awake rats; format: in vivo, rat
Description: All experimental procedures were performed under a protocol approved by the Institutional Animal Care and Use Committee of CV Therapeutics, Inc., and in accordance with the recommendations set forth in the Guide for the Care and Use of Laboratory Animals published by the National Research Council. Male Sprague-Dawley rats (225-250 gm) with either one or two indwelling catheters (carotid and jugular) were purchased from Charles River Laboratories (Wilmington, Mass.). Animals were housed 1 per cage in a room maintained on a 12 h light/dark cycle (light on 06.00-18.00 h) under constant temperature (22-25° C.) and with ad libitum access to food and water.
(§1) The anti-lipolytic effects of Compound A were studied in awake rats. Animals were fasted overnight before experimental use. On the day of the experiment, animals were put in metabolic cages and left undisturbed to acclimate to the environment for 1-2 hrs. An infusion set (21 G×¾″, 0.8×19 mm U.T.W., 3½″, 9 cm tubing, volume 0.15 ml) was connected to the arterial catheter for blood sampling. A 1% sodium citrate saline solution was used to flush the lines. A pre-treatment blood sample was obtained from each animal to determine baseline values for FFA and TG. Compound A was given via oral gavage, sc injection, iv injection, or iv infusion, as described, for each different series of experiments. Blood samples were collected into serum separator tubes (Becton Dickinson, Franklin Lakes, N.J.) at pre-determined times, Blood was allowed to clot, and then centrifuged at 8000 rpm for 4 min at 4° C. The serum was stored at −80° C. and was thawed at 4° C. for determinations of FFA and TG contents.
Compound A was synthesized by the Department of Medicinal and Bio-Organic chemistry of CV Therapeutics, Inc. Sodium citrate and Triton WR1339 were purchased from Sigma (St. Louis, Mo.). Nicotinic acid and PEG 400 were purchased from VWR (by EMD Chemicals). Triton WR 1339 was diluted in warm saline (˜37° C.) with frequent vortexing. Nicotinic acid was dissolved in saline. Compound A was dissolved in PEG 400, and then diluted with distilled water to make a 20% PEG drug solution. Serum FFA and TGs were measured using commercial kits from Wako Chemicals, Richmond, Va. Glucose and Insulin were measured using commercial kits from Wako Chemicals USA (Richmond, Va.).
All data are reported as mean±SEM. Statistical analysis of data from experiments with 2 treatment groups was performed using the unpaired Student's t-test. Two way analysis of variance followed by Bonferroni's test was used for multiple comparisons. Differences among treatment groups were considered to be significant when the probability of their occurrence by chance alone was <0.05.

awake rats [2] = assay: Cardiovascular measurements (heart rate, blood pressure) by telemetry in awake rats; format: in vivo, rat
Description: FIG. 7 presents the time-course of the effect of Compound A on (A) heart rate and (B) mean arterial pressure in awake rats as measured by telemetry. Compound A was given at various does (1, 5, and 25 mg·kg) by oral gavage at time 0. Each data point is the mean of individual values from the number of experiments indicated in parenthesis. The initial transient (10 Minutes) increase in heart rate subsequent to the injection of vehicle or Compound A is due to the stress caused by handling of the animals.
The effects of Compound A on heart rate and blood pressure were determined in a separate group of animals as heart rate is very easily affected in the un-anesthetized animal by animal handling and blood sampling. Rats were instrumented with radiotelemetered transmitters (Data Sciences) at least 3 weeks prior to experimentation. The ECG, blood pressure and temperature were recorded and heart rate calculated using a Dataquest ART Gold system (Version 2.2; Data Sciences Intl). The system consisted of a transmitter, i.e., biopotential sensor (Model TL11M2-C50-PXT), receivers (Model RPC-1), a consolidation matrix (BCM 100), a personal computer (Compaq DeskPro Series 3574) and Dataquest 4 software. Heart rate, blood pressure and temperature were measured at 5-minute intervals. Each recording lasted 10 seconds and all cardiac cycles within this period were averaged.

normal rats = assay: Triglyceride production after Triton WR 1339 injection in rats; format: in vivo, rat
Description: FIG. 3 graphs the time-dependent increase of TG caused by Triton […] in the absence or presence of Compound A as described in Example 31. After a 4 hour fast, rats received either vehicle or Compound A (5 mg/kg) via SC injection. After 5 minutes, Triton (400 mg/kg) was given as a slow intravenous bolus. Data are presented as ±SEM of values from 7-8 animals. Slope of the lines (determined by linear regression analysis) was 5.6±0.1 and 3.8±0.2 for vehicle and Compound A groups, respectively. Data were analyzed using 2 way ANOVA followed by Bonferroni's post hoc test.
as §1
Compound A was synthesized by the Department of Medicinal and Bio-Organic chemistry of CV Therapeutics, Inc. Sodium citrate and Triton WR1339 were purchased from Sigma (St. Louis, Mo.). […] Serum FFA and TGs were measured using commercial kits from Wako Chemicals, Richmond, Va. Glucose and Insulin were measured using commercial kits from Wako Chemicals USA (Richmond, Va.).
To further investigate the mechanism of the decrease in TG levels by Compound A, total TG production was measured in normal rats. […]

C57BL/J6 mice = assay: Hyperinsulinemic euglycemic clamp in C57BL/J6 mice on high fat diet for 12 weeks; format: in vivo, mouse; details: 2.5 mg/kg or 5.0 mg/kg ip 15 min prior to clamp
Description: C57BL/J6 mice were maintained on normal chow or a HF diet (Bovine Lard, 23 wt/wt %, 44 energy % provided by the lard) for 12 weeks to induce insulin resistance. At the end of 12 weeks a hyperinsulinemic euglycemic clamp analysis was performed to measure insulin sensitivity in the absence and presence of Compound A. Compound A was given via an ip injection 15 minutes before the clamp protocol was started. After an overnight fast, glucose turnover studies were performed as described previously (6; 11). Briefly, animals were anesthetized; an infusion needle was placed in one of the tail veins. Thereafter, a bolus of insulin was given and a hyperinsulinemic clamp was started by continuous infusion of insulin. Blood samples were taken every 10 minutes (tail bleeding) to monitor plasma glucose levels. A variable infusion of 12.5% D-glucose (in PBS) solution was started at time 0 and adjusted to maintain blood glucose at ˜6.0 mM. When steady state glucose levels were reached (approximately 1 hour after start of the insulin infusion) a final blood sample was taken (for measurement of plasma insulin) and the hyperinsulinemic euglycemic clamp was terminated.

rats fed high fat diet [3] = assay: Oral glucose tolerance test after 2 week treatment in high fat diet rats; format: in vivo, rat; details: 5 mg/kg SC twice a day for 2 weeks, HF rats
Description: Animals were fasted overnight before taking samples. Compound A was given twice daily via a SC injection for 2 weeks at a dose of 5 mg/kg. Data is presented as mean±SEM from number of animals indicated in the parenthesis for each group. […] All experimental procedures were performed under a protocol approved by the IACUC (CV Therapeutics, Inc.) and in accordance with the recommendations set forth in the Guide for the Care and Use of Laboratory Animals published by the National Research Council. Male Sprague-Dawley rats (225-250 gm) with either one or two indwelling catheters (carotid and jugular) were obtained from Charles River Laboratories (Wilmington, Mass.). Animals were housed 1 per cage in a room maintained on a 12 h light/dark cycle (light on 06.00-18.00 h) under constant temperature (22-25° C.) and with ad libitum access to food and water. Rats on normal diet (Chow) were fed standard laboratory chow (12% fat, 60% carbohydrate, and 28% protein) throughout the study, while animals in the high fat (HF) diet group were given a diet (TD88137 from Harlan Teklad, Madison, Wis.) containing 42% fat, 43% carbohydrate, and 15% protein. […] On the day of the experiment, animals were put in metabolic cages and left undisturbed to acclimate to the environment for 1-2 hrs. An infusion set (21 G×¾″, 0.8×19 mm U.T.W., 3½″, 9 cm tubing, volume 0.15 ml) was connected to the arterial catheter for blood sampling. A 1% sodium citrate saline solution was used to flush the lines. A pre-treatment blood sample was obtained from each animal to determine baseline values for glucose, insulin, FFA and TG. Blood samples were collected into plasma and serum separator tubes (Becton Dickinson, Franklin Lakes, N.J.) at pre-determined time points. Oral glucose tolerance test (OGTT) was performed by giving 2 gm/kg of glucose load. […] For chronic experiments Compound A was administered twice a day via subcutaneous injection at a dose of 5 mg/kg for 2 weeks. […] Data form OGTT was analyzed by calculating area under the curve (AUC) using prism graphpad software. […]

rats fed high fat diet [4] = assay: Oral glucose tolerance test after a single dose in high fat diet rats; format: in vivo, rat; details: 1 mg/kg oral gavage 15 min before 2 gm/kg glucose load, HF rats
Description: Data is presented as mean±SEM from number of animals indicated in the parenthesis for each group. […] All experimental procedures were performed under a protocol approved by the IACUC (CV Therapeutics, Inc.) and in accordance with the recommendations set forth in the Guide for the Care and Use of Laboratory Animals published by the National Research Council. Male Sprague-Dawley rats (225-250 gm) with either one or two indwelling catheters (carotid and jugular) were obtained from Charles River Laboratories (Wilmington, Mass.). Animals were housed 1 per cage in a room maintained on a 12 h light/dark cycle (light on 06.00-18.00 h) under constant temperature (22-25° C.) and with ad libitum access to food and water. Rats on normal diet (Chow) were fed standard laboratory chow (12% fat, 60% carbohydrate, and 28% protein) throughout the study, while animals in the high fat (HF) diet group were given a diet (TD88137 from Harlan Teklad, Madison, Wis.) containing 42% fat, 43% carbohydrate, and 15% protein. […] On the day of the experiment, animals were put in metabolic cages and left undisturbed to acclimate to the environment for 1-2 hrs. An infusion set (21 G×¾″, 0.8×19 mm U.T.W., 3½″, 9 cm tubing, volume 0.15 ml) was connected to the arterial catheter for blood sampling. A 1% sodium citrate saline solution was used to flush the lines. A pre-treatment blood sample was obtained from each animal to determine baseline values for glucose, insulin, FFA and TG. Blood samples were collected into plasma and serum separator tubes (Becton Dickinson, Franklin Lakes, N.J.) at pre-determined time points. Oral glucose tolerance test (OGTT) was performed by giving 2 gm/kg of glucose load. Compound A was given via an oral gavage 15 minutes prior to the glucose load. […] Statistical analysis of data from experiments with 2 treatment groups was performed using the unpaired Student's t-test. One way analysis of variance (ANOVA) followed by Newman-Keuls posthoc analysis was used for multiple comparisons. Data form OGTT was analyzed by calculating area under the curve (AUC) using prism graphpad software. […]

O[C@@H]1[C@H](O)[C@@H](CSc2ccccc2F)O[C@H]1n1cnc2c(N[C@@H]3CCC[C@H]3O)ncnc21 [Compound A, 2-{6-[((1R,2R)-2-hydroxycyclopentyl)amino]purin-9-yl}(4S,5S,2R,3R)-5-[(2-fluorophenylthio)methyl]oxolane-3,4-diol]
decrease in TG levels (awake rats [1]; 2.5 mg/kg oral gavage): 36%
serum TG level (awake rats [1]; 2.5 mg/kg oral gavage, from 54±4 mg/dl, p<0.05): 35 ± 4 mg/dL
reduction in TG levels compared to vehicle-treated rats (awake rats [1]; 5 mg/kg oral gavage): 41%
serum TG level (awake rats [1]; 5 mg/kg oral gavage, p<0.01): 32 ± 4 mg/dL
reduction in TG levels compared to vehicle-treated rats (awake rats [1]; 10 mg/kg oral gavage): 58%
serum TG level (awake rats [1]; 10 mg/kg oral gavage, p<0.01): 23 ± 1 mg/dL
reduction of serum triglyceride levels, dose dependence (awake rats [1]; 2.5, 5, 10 mg/kg oral gavage): dose-dependent manner
decrease in heart rate (calculated as area under the curve) (awake rats [2]; 25 mg/kg oral gavage): 13±1%
effect on heart rate on increasing the dose (awake rats [2]; 50 mg/kg (data not shown)): no further decrease
effect on heart rate (awake rats [2]; 1 and 5 mg/kg oral gavage): did not have a significant effect
effect on blood pressure (awake rats [2]; at the doses used (1, 5, 25 mg/kg oral gavage)): did not have any significant effect
increase in serum TG caused by Triton vs vehicle-treated animals (normal rats; 180 minutes post-treatment, p<0.01): significantly less
slope of the time-dependent TG increase caused by Triton (linear regression) (normal rats; FIG. 3 legend: 5 mg/kg SC, Triton 400 mg/kg iv, 4 hour fast, vehicle 5.6±0.1): 3.8±0.2
TG accumulation, slope of the line (linear regression) (normal rats; text: Triton 600 mg/kg, vehicle printed as 3.8±0.17, p<0.001): 5.6 ± 0.12 mg/dL/min
insulin-mediated glucose disposal / glucose infusion rate (GIR) vs untreated HF mice (C57BL/J6 mice): significant differences (p<0.01); also recorded: significantly greater (p<0.01)
glucose levels in OGTT (rats fed high fat diet [3]): did not vary
total integrated plasma insulin levels (AUC) in OGTT (rats fed high fat diet [3]): significantly (p<0.05) lower
total glucose response area in OGTT (rats fed high fat diet [4]): no differences
total insulin response area (AUC) in OGTT (rats fed high fat diet [4]): significantly (p<0.05) decreased; also recorded: no different than the insulin response of chow-fed rats given vehicle
